How the values were obtained:
[1] = tested on: human umbilical vein endothelial cells (HUVEC); assay: Migration assay (RT-CIM), HUVEC; assay type: cell-based; conditions: FIG. 1
Protocol: (§1) The inhibitory potential of the peptides was measured using a real time migration assay system based on electrical impedance (RT-CIM, ACEA Biosciences, CA). CIM 16 well plates (Roche, 05665817001) are composed of a top and bottom chamber separated by a microporous (8 μm) polycarbonate membrane. The membrane was coated with fibronectin (20 μg/mL), and 45,000 cells/well in serum free media with or without peptides were added to the top compartment. Media with chemoattractant (i.e., fully supplemented EBM-2) was added to the bottom compartment of the chamber and the plate was incubated at 37° C. for 20 hours. The sensors integrated on the bottom side of the membrane monitor and continuously record changes in impedance as the cells move through the membrane. The RT-CIM technology allows for easy quantification of cell migration by monitoring the cell index derived from the measured impedances. Assays were performed in at least two independent replicates and each replicate was performed using two experimental duplicates. Breast cancer cells MDA-MB-231 are not suitable for the RT-CIM type experiments due to their thin elongated phenotype, thus the inhibition of migration was investigated using a wound healing type assay. This assay was performed using the Oris Pro Migration assay (Platypus Technologies, CMA 1.101). […]

[2] = tested on: human retinal endothelial cells (HREC); assay: Proliferation assay (WST-1), HREC; assay type: cell-based; conditions: FIG. 2
Protocol: (§2) A colorimetric based proliferation assay using WST-1 (Roche, 11644807001) proliferation reagent was carried out using HREC cells, HUVEC cells, and the breast cancer cells MDA-MB-231, MCF-7, and SUM149. 2000 cells/well were plated in 96-well plates and allowed to adhere overnight. On the following day, the media was exchanged with fully supplemented media containing peptides or equivalent DMSO vehicle for the controls. Three days later, the media containing the peptides was replaced with serum-free EBM-2 media containing WST-1 reagent and the plates were incubated for four hours as per the manufacturer's recommendations. Changes in color, due to the formazan dye resulted from the cleavage of the tetrazolium salt WST-1 by the mitochondrial succinate-tetrazolium reductase, were read on a Victor V fluorescence plate reader (Perkin Elmer, Mass.) by measuring the absorbance at 450 nm. Dose response curves of percent live cells (in comparison to untreated cells, but incubated in complete media with 0.2% DMSO) were created. Assays were performed in at least two independent replicates and each replicate was performed using three experimental triplicates.

[3] = tested on: human retinal endothelial cells (HREC); assay: Migration assay (RT-CIM), HREC; assay type: cell-based; conditions: FIG. 2
Protocol: as §1

[4] = tested on: human retinal endothelial cells (HREC); assay: Adhesion assay (RT-CIM), HREC; assay type: cell-based; conditions: FIG. 2
Protocol: Similar to the migration assays, the inhibition activity of the peptide in cellular adhesion was assessed using the RT-CIM technology. In this case, 25,000 cells/well were plated in 16 wells E-plates (Roche, Basel Switzerland) in the presence or absence of the peptide. The adhesion was monitored over time (3 hours) by measuring changes in the electrical impedance, which is a direct measure of the cells adhering on the electrodes. Assays were performed in at least two independent replicates and each replicate was performed using two experimental duplicates.

[5] = tested on: triple-negative breast cancer cell line MDA-MB-231; assay: Proliferation assay (WST-1), MDA-MB-231; assay type: cell-based, human; conditions: in vitro; FIG. 7
Protocol: as §2

angiogenesis = assay: Angiogenesis in vivo (lectin staining, IHC)
[6] = tested on: VEGF-induced neovascularization; assay: rho/VEGF transgenic mice with VEGF-induced neovascularization; assay type: in vivo; conditions: compared to a control; FIGS. 13C-E
Protocol: Transgenic Mice with VEGF-Induced Neovascularization.
At postnatal day 14, hemizygous rho/VEGF mice were given an intraocular injection of 1 μL of 5% DMSO/water, 1 μL of 5% DMSO/water containing 0.1 μg or 1 μg of SP2043 (SEQ ID No: 1) in one eye. Intraocular injections were done under a dissecting microscope with a Harvard Pump Microinjection System (Harvard Apparatus, Holliston, Mass.) and pulled glass micropipettes. At postnatal day 21, the total area of subretinal neovascularization (NV) per eye was quantified. Briefly, mice were anesthetized and perfused with 1 mL of PBS containing 25 mg/mL of fluorescein-labeled dextran (average molecular weight of 2×10^6, Sigma-Aldrich, St. Louis, Mo.). The eyes were removed and fixed for 1 hour in 10% phosphate-buffered formalin. […] The retinas were examined by fluorescence microscopy at 200× magnification, which provides a narrow depth of field so that when focusing on NV on the outer surface of the retina, the remainder of the retinal vessels are out of focus, allowing easy delineation of the NV. […] By using Image analysis software (Image-Pro Plus; Media Cybernetics, Silver Spring, Md.), an investigator masked with respect to treatment group allowed the software to recognize and calculated the total area of subretinal NV per eye as previously described.

[7] = tested on: neovasculature in laser induced CNV; assay: CNV regression model; assay type: in vivo, mice; conditions: mouse eye; free peptide; FIG. 14
Protocol: Bruch's membranes of both eyes of C57BL/6J mice were ruptured with a laser after anesthetizing the mice and dilating their pupils with 1% tropicamide. Seven days later, some mice were sacrificed to establish baseline neovascularization. At that time, 1 μg of SP2043 (SEQ ID NO: 1) was administered in one eye and vehicle in the fellow eye of other mice. Seven days later, all animals were perfused with fluorescein-labeled dextran, eyes removed, the retina dissected and flatmounted after making radial cuts, and fluorescence was measured. The images were digitized using a 3-color charge-coupled device video camera and a frame grabber and the area of hypervascularization was quantified by image-analysis software.

Question: With “LRRFSTAPFAFIDINDVINF (Artificial sequence based on human Collagen Type IV protein) [SP2043]” as the sequence, how does the “migration of HUVEC” value [1] read?
Answer: inhibit

Question: What about the “proliferation of HREC” value [2] of the same sequence?
Answer: inhibit

Question: What about the “migration of HREC” value [3] of the same sequence?
Answer: inhibit

Question: And the “adhesion of HREC” value [4]?
Answer: inhibit

Question: And the “proliferation of MDA-MB-231” value [5]?
Answer: inhibit

Question: What about the angiogenesis in vivo (angiogenesis; FIG. 10) of the same sequence?
Answer: inhibit

Question: What about the “angiogenesis as seen by lectin staining for IHC” value (angiogenesis; FIG. 11) of the same sequence?
Answer: inhibited

Question: And the “neovascularization in rho-VEGF mouse model” value [6]?
Answer: inhibited

Question: And the “regression of the neovasculature in laser induced CNV model” value [7]?
Answer: caused regression

From US10774112B2, “Biomimetic peptide and biodegradable delivery platform for the treatment of angiogenesis- and lymphangiogenesis-dependent diseases” (THE JOHNS HOPKINS UNIVERSITY, priority 2013, dated 2020)
